# Laboratory results published in article PMC10671498, “Antiproliferative and Cytotoxic Properties of Propynoyl Betulin Derivatives against Human Ovarian Cancer Cells: In Vitro Studies” (International Journal of Molecular Sciences, 2023).
# Like-named read-outs stand apart in the source and are kept apart here.
# Experiments:
# [1] = system: human melanoma cell line A2058; design: method as in PMID 28100848; settings: A2058, 3 μM; cited from earlier work
# [2] = system: SK-OV-3 cells; test: DNA fragmentation assay (Cell Death Detection ELISA, cytoplasmic fraction), SK-OV-3; assay type: cell-based, human; settings: SK-OV-3, 24 h, 3, 10, 30 µM
# Description: (§1) Fragmentation of genomic DNA was determined by means of the Cell Death Detection ELISAPLUS kit (Roche, Basel, Switzerland). This method rests on the immunoenzymatic detection of DNA–histone complexes in the cytoplasmic cell fraction or cell culture supernatants. Cells were plated and cultured in 96-well plates (Greiner Bio-One) at the initial density of 5 × 10^3 cells per well in 100 µL of culture medium. Cells were allowed to attach and grow for 1 day prior to the addition of test reagents. Then, the media were replaced with the working solutions (3 µM, 10 µM, 30 µM), and cells were exposed to compounds 2–6 for 24 h. In some cases, 5 µM cyclosporin A (CsA, an inhibitor of the mitochondrial permeability transition) was added to the cells 30 min before treatment with the betulin derivative. Subsequently, cells were incubated concomitantly with both compounds. After a 24 h incubation period, plates were centrifuged (200× g; 10 min), media were removed, and cells were lysed for 30 min at room temperature. At the next step, the lysates were again spun (200× g; 10 min), and 20 µL of supernatants (cytoplasmic fractions) was moved to the new 96-well streptavidin-coated plate. In one experiment, the presence of mono- and oligonucleosomes was determined in 20 µL samples of centrifuged culture supernatants (media) to detect the permeability of plasma membrane (considered as an indicator of cell necrosis). Then, the sandwich ELISA assay was fulfilled according to the manufacturer’s protocol. Absorbance was measured at 405 nm and 490 nm (reference wavelength), and the enrichment factor of the cytoplasmic (or supernatant) fraction in mono- and oligonucleosomes was calculated according to the formula: EF = absorbance of sample cells/absorbance of control cells.
# (§2) A high EF index in the cytoplasmic fraction (resulting from DNA fragmentation while maintaining the tightness of cell membranes) is a typical indicator of the relatively early stage of apoptosis.
# [3] = system: human melanoma cell line C32; design: method as in PMID 28100848; settings: C32, 3 μM; cited from earlier work
# [4] = system: SK-OV-3 cells; test: TMRM analysis of mitochondrial membrane potential; assay type: cell-based, human; settings: SK-OV-3, 3 h, 30 µM
# Description: Tetramethylrhodamine methyl ester (Sigma Aldrich) was used for the assessment of changes in the transmembrane potential of mitochondria. TMRM is a fluorescent cationic dye accumulating in mitochondria in a potential-dependent manner. Cell cultures were prepared as described above for acridine orange staining. Cells were exposed to test solutions for 3 h, and then TMRM was added (final concentration 100 nM) followed by incubation for 30 min in the CO2 incubator. Prior to observation, the plates were centrifuged (250× g, 5 min), and the medium was changed to PBS. The cells were analyzed under the Nikon Eclipse TS-100F microscope and photographed.
# [5] = system: SK-OV-3 cells; test: SRB cell proliferation assay, SK-OV-3; assay type: cell-based, human; settings: for IC50: Homo sapiens; for concentration at which antiproliferative activity (decrease in the number of cells) was evident: SK-OV-3, SRB assay, 0.1–30 µM
# Description: This study used ovarian cancer cell lines, which are part of the panel of cell lines used as part of the NCI-60 Human Cell Lines Screen program, characterized by overexpression of the c-erbB2/neu (HER2) receptor [62, 63]. The human ovarian cancer cell lines (SK-OV-3 and OVCAR-3) were purchased from the American Type Culture Collection (ATCC®, Manassas, Virginia, USA). SK-OV-3 cells (ATCC No. HTB-77™) were cultured in McCoy’s 5A medium containing D-glucose (3 g/L), L-glutamine (0.219 g/L), and sodium bicarbonate (2.2 g/L) supplemented with 10% fetal bovine serum, 10 mM HEPES (pH 7.3–7.5), 100 U/mL penicillin, and 100 μg/mL streptomycin (all from Sigma Aldrich).
# (§3) Betulin 1 and its derivatives were dissolved in dimethyl sulfoxide (DMSO; Sigma Aldrich) as a 15 mM stock solution. Working solutions were prepared through the dilution of stock solutions with culture medium. The final DMSO concentration in culture media was adjusted to 0.2%. The effect of tested compounds on the proliferation of SK-OV-3 and OVCAR-3 cells was measured using the In Vitro Toxicology Assay Kit, Sulforhodamine B based (Sigma Aldrich). Cells were seeded in 96-well plates (Greiner Bio-One, Kremsmünster, Austria) at an initial density of 3 × 10^3 cells per well in 200 µL of culture medium. After 24 h of incubation, betulin 1 and its derivatives at a concentration range of 0.1 μM to 30 μM were added to the wells. Control cultures were treated with vehicle alone (0.2% DMSO). The incubation periods for cells with test compounds were 1 day, 3 days, and 5 days. After appropriate incubation periods, culture media were removed, and cells were fixed in 10% trichloroacetic acid solution for 60 min at 4 °C. After fixation, the TCA solution was removed, and the plates were washed three times with deionized water (300 μL/well) and dried. At the next step, cells were stained with 0.4% sulforhodamine B for 30 min. The excess dye was removed by washing three times with 1% (vol/vol) acetic acid. The protein-bound dye was dissolved in 200 μL 10 mM Tris base solution. Absorbance was measured at 570 nm and 690 nm (reference wavelength) using the MRX Revelation plate reader (Dynex Technologies, Chantilly, VA, USA).
# (§4) GraphPad Prism 10.0.2 (GraphPad Software Inc., San Diego, CA, USA) software was used for calculations and the statistical analysis of the IC50 values (Table 1). IC50 was determined by using the “nonlinear regression” mode, and the “log(inhibitor) vs. normalised response—Variable slope” equation was chosen in GraphPad Prism software for calculations. The obtained data were normalized to run from 100% down to 0%, and logarithms of concentration were used. Graphs (Figure 2, Figure 3, Figure 4, Figure 5 and Figure 8, and Supplementary Figure S1) were also prepared using this software. In the case of the lack of normal distribution or homogeneity of variances, the remaining results were analyzed using a non-parametric Kruskal–Wallis test with multiple comparisons. Post hoc analysis was performed with the non-parametric equivalent of Tukey’s test. A p value of <0.05 was considered statistically significant. Otherwise, a one-way ANOVA followed by a Tukey’s post hoc test was applied. t-tests was used to perform pairwise comparisons between group means. Analysis was performed using Statistica 13.1 software (StatSoft, Tulsa, OK, USA).
# [6] = system: 18Co normal myofibroblasts; test: SRB cell proliferation assay, 18Co normal myofibroblasts; assay type: cell-based
# Description: Next, 18Co cells (ATCC No. CRL-1459™) were cultured in MEM medium containing HEPES buffer, 10% fetal bovine serum, 100 U/mL penicillin, and 100 μg/mL streptomycin (all from Sigma Aldrich).
# as §3, §4
# [7] = system: OVCAR-3 cells; test: SRB cell proliferation assay, OVCAR-3; assay type: cell-based, human; settings: for IC50: Homo sapiens; for concentration at which antiproliferative activity (decrease in the number of cells) was evident: OVCAR-3, SRB assay, 0.1–30 µM
# Description: OVCAR-3 cells (ATCC No. HTB-161™) were cultured in RPMI-1640 medium containing HEPES buffer (2.383 g/L), sodium bicarbonate (1.5 g/L), sodium pyruvate (0.11 g/L) supplemented with 20% fetal bovine serum, 10 µg/mL bovine insulin, 100 U/mL penicillin, and 100 μg/mL streptomycin (all from Sigma Aldrich).
# as §3, §4
# [8] = system: OVCAR-3 cells; test: DNA fragmentation assay (Cell Death Detection ELISA, cytoplasmic fraction), OVCAR-3; assay type: cell-based, human; settings: OVCAR-3, 24 h, 3, 10, 30 µM, among the betulin derivatives
# Description: as §1, §2
# [9] = system: OVCAR-3 cells; test: LDH release assay, OVCAR-3; assay type: cell-based, human; settings: OVCAR-3, 24 h
# Description: (§5) In order to evaluate the cytotoxic effect, the release of LDH into the culture medium using the In Vitro Toxicology Assay Kit, Lactic Dehydrogenase Based (TOX7; Sigma Aldrich) was assessed. SK-OV-3 and OVCAR-3 cells were plated and cultured in 96-well plates (Greiner Bio-One) at the initial density of 5 × 10^3 cells per well in 100 µL of culture medium. The density of the cells was determined in the same manner as in the SRB assay. After 24 h, the media were replaced with the working solutions, which contained appropriate test compounds at concentrations of 3 μM, 10 μM, 30 μM, and control medium (0.2% DMSO). Cells were exposed to the test substances for 24 h. The background control comprised wells without cells with only control medium. To determine the maximal LDH release (high control), half of the control cultures were treated with lysis buffer. Wells with untreated cells were used as the low control of the assay. LDH activity in media was assessed according to the manufacturer’s protocol. The absorbance was measured at wavelengths of 490 nm and 690 nm (background), and the percentage of released enzyme was calculated for cells growing in the presence of compounds according to the formula:Cytotoxicity [%] = [(AT − AL)/(AH − AL)] × 100 where AT is the absorbance of treated wells; AL is low control; and AH is high control (maximal LDH release).
# (§6) Cytotoxicity was expressed as a percentage of the released LDH calculated according to the difference between the absorbance of the treated and low control wells divided by the difference between the absorbance of the high control and low control wells.
# [10] = system: SK-OV-3 cells; test: LDH release assay, SK-OV-3; assay type: cell-based, human; settings: SK-OV-3, 24 h, all concentrations (3, 10, 30 μM)
# Description: as §5, §6
# [11] = 72 h, SK-OV-3, 3 days treatment, SRB assay, read-out: IC50
# [12] = 120 h, SK-OV-3, 5 days treatment, SRB assay, read-out: IC50
# [13] = 18Co, 3 days treatment, Neg: negative in the concentration used
# [14] = 18Co, 5 days treatment, Neg: negative in the concentration used
# [15] = 72 h, OVCAR-3, 3 days treatment, SRB assay, read-out: IC50
# [16] = 120 h, OVCAR-3, 5 days treatment, SRB assay, read-out: IC50
Structure (SMILES),"IC50 [5, 11] [µM]","IC50 [5, 12] [µM]",concentration at which antiproliferative activity (decrease in the number of cells) was evident [5] [µM],"IC50 [6, 13]","IC50 [6, 14]","IC50 [7, 15] [µM]","IC50 [7, 16] [µM]",concentration at which antiproliferative activity (decrease in the number of cells) was evident [7] [µM],"IC50 ([5]; SK-OV-3, 72 h) [µM]","IC50 ([5]; SK-OV-3, 120 h) [µM]","IC50 ([7]; OVCAR-3, 72 h) [µM]","IC50 ([7]; OVCAR-3, 120 h) [µM]",also measured
"C#CC(=O)OC[C@]12CC[C@@H](C(=C)C)[C@@H]1[C@H]1CC[C@@H]3[C@@]4(C)CC[C@H](O)C(C)(C)[C@@H]4CC[C@@]3(C)[C@]1(C)CC2 [Compound 2, 28-O-propynoylbetulin]",0.18,0.2,≥ 0.3,Neg,Neg,0.16,0.19,≥ 0.3,–,–,–,–,"inhibition of proliferation [1]: strong inhibition; DNA fragmentation (enrichment factor, internucleosomal DNA fragments) [2]: moderate increases; inhibition of proliferation [3]: strong inhibition; mitochondrial membrane potential (TMRM fluorescence) [4]: reduced the mitochondrial membrane potential"
"C#CC(=O)O[C@H]1CC[C@@]2(C)C(CC[C@]3(C)C2CCC2C4[C@H](C(=C)C)CC[C@]4(COP(=O)(OCC)OCC)CC[C@]23C)C1(C)C (stereo partly shown) [Compound 4, 28-O-diethoxyphosphoryl-3-O-propynoylbetulin]",–,–,–,–,–,–,–,> 3,1.08,1.33,1.88,1.45,"DNA fragmentation (enrichment factor) [8]: greatest effect; cytotoxicity (released LDH), loss of cell membrane integrity ([9]; 10 μM and 30 μM): loss of cell membrane integrity was also confirmed; IC50 ([6]; 72 h): 9.47 µM; IC50 ([6]; 120 h): 23.7 µM"
"C#CC(=O)OC[C@]12CC[C@@H](C(=C)COP(=O)(OCC)OCC)C1C1CCC3[C@@]4(C)CC[C@H](O)C(C)(C)C4CC[C@@]3(C)[C@]1(C)CC2 (stereo partly shown) [Compound 5, 30-diethoxyphosphoryloxy-28-O-propynoylbetulin]",–,–,1,Neg,Neg,–,–,1,0.28,0.29,0.54,0.6,"cytotoxicity (released LDH) ([9]; all concentrations (3, 10, 30 μM)): significant cytotoxic activity; cytotoxicity (released LDH) [10]: strong cytotoxic effect"
"CC(=O)O[C@H]1C(=O)[C@@]2(C)[C@H]([C@H](OC(=O)c3ccccc3)[C@]3(O)C[C@H](OC(=O)[C@H](O)[C@@H](NC(=O)c4ccccc4)c4ccccc4)C(C)=C1C3(C)C)[C@]1(OC(C)=O)CO[C@@H]1C[C@@H]2O [PTX, Paclitaxel, reference compound]",0.00439,0.00565,–,Neg,–,0.00449,0.00297,–,–,–,–,–,"IC50 ([6]; 120 h, 18Co, 5 days treatment, Neg: negative in the concentration used, read-out: IC50): 0.0148 µM"
